Measured values reported in PMC6407587, “Inhibition potential of phenolic constituents from the aerial parts of Tetrastigma hemsleyanum against soluble epoxide hydrolase and nitric oxide synthase” (Journal of Enzyme Inhibition and Medicinal Chemistry, 2019).
Read-outs that look alike come from different tables or passages of the source.

Assays:
[1] = target: T1, sEH (Homo sapiens, UniProt P34913); test: sEH inhibitory activity, fluorescence assay with PHOME substrate; format: biochemical; settings: for inhibition at 100 µM / Inhibition on sEH at 100 µM (%): 100 µM compound, tested three times; for IC50: PHOME substrate, dose-dependent response curve
T1 sequence (P34913 1-555): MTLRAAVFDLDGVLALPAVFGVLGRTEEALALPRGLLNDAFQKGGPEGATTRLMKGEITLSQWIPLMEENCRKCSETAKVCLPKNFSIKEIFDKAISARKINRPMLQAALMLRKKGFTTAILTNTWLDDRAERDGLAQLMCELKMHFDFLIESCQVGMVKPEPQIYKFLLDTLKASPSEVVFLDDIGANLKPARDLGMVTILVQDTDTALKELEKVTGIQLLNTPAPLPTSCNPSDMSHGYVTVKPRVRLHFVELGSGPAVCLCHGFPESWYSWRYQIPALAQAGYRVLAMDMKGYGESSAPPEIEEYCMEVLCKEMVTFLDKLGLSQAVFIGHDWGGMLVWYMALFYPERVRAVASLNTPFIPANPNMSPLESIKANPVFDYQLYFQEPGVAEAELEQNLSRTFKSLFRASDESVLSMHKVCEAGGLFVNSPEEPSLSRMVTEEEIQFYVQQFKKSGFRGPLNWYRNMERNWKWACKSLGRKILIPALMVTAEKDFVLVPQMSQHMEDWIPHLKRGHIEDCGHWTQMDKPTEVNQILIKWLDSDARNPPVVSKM

[2] = test system: LPS-induced NO production in macrophage RAW 264.7 cells (iNOS); test: Inhibition of LPS-induced NO production in RAW 264.7 macrophages (Griess reaction, measure of iNOS activity); format: cell-based; settings: for IC50: means ± SE, n = 3;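 for all read-outs here: cells pretreated with compound for 2 h, then stimulated 24 h with LPS at 500 ng/ml, supernatant nitrite quantified by absorbance at 550 nm against a nitrite standard curve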
[3] = test system: RAW 264.7 cells;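 note: viability gauged by mitochondrial reductase turning MTT into formazan, optical density read at 570 nm, with untreated control cells set as 100% viability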
[4] = target: T1, sEH; test: sEH binding mechanism, Dixon and Lineweaver-Burk plots at different substrate and inhibitor concentrations; format: biochemical; settings: for Ki: Dixon plots; for Type of sEH inhibition: Dixon / Lineweaver-Burk plots
[5] = Mus musculus, 50 µM compound, LPS-stimulated RAW264.7 cells, read-out: Inhibition of NO production at 50 µM (%)
[6] = 50 µM compound, LPS-stimulated RAW264.7 cells
[7] = Mus musculus, RAW264.7, LPS-stimulated RAW264.7 cells

| inhibition at 100 µM [1] [%] | IC50 [1] [µM] | Structure (SMILES) | inhibition at 50 µM [2, 5] [%] | Cytotoxicity in RAW 264.7 cells (MTT) [3] | other results |
| --- | --- | --- | --- | --- | --- |
| 22.1 ± 0.9 |  | O=C(CO)c1ccc(O)cc1 [Compound 28] | 6.2 | did not exhibit significant cytotoxicity |  |
| 39.7 ± 4.4 |  | O=C(O)/C=C/c1ccc(O)cc1 [Compound 29] | 13.4 |  |  |
|  | 21 ± 0.4 | O=C(O)/C=C/c1ccc(O)c(O)c1 [Compound 30] | 21.5 | did not exhibit significant cytotoxicity |  |
| 43 ± 1.1 |  | COc1cc(/C=C/C(=O)O)ccc1O [Compound 31] | 10.6 |  |  |
|  | 6.8 ± 0.9 | Oc1ccc(/C=C/c2cc(O)cc(O)c2)cc1 [Compound 32] | 77.7 | did not exhibit significant cytotoxicity | IC50 [2, 7]: 30.6 ± 1.8 µM |
| 19.4 ± 0.8 |  | Oc1ccc(-c2ccc(O)c(O)c2)cc1O [Compound 33] | 3 | did not exhibit significant cytotoxicity |  |
| 13.3 ± 0.2 |  | OC[C@H]1O[C@@H](OCCc2ccccc2)[C@H](O)[C@@H](O)[C@@H]1O [Compound 34] | 12.8 | did not exhibit significant cytotoxicity |  |
| 10.5 ± 3 |  | OC[C@H]1O[C@@H](OC[C@@H](O)c2ccc(O)cc2)[C@H](O)[C@@H](O)[C@@H]1O [Compound 35] | 15.9 | did not exhibit significant cytotoxicity |  |
| 24.6 ± 3.1 |  | CC/C=C\CCO[C@@H]1O[C@H](CO)[C@@H](O)[C@H](O)[C@H]1O [Compound 37] | 14.5 | did not exhibit significant cytotoxicity |  |
| 39.5 ± 4.1 |  | C[C@@H]1CC[C@]2(C(=O)O)CC[C@]3(C)C(=CC[C@@H]4[C@@]5(C)C[C@@H](O)[C@@H](O)C(C)(C)[C@@H]5CC[C@]43C)[C@@H]2[C@]1(C)O [Compound 38] | 8.9 | did not exhibit significant cytotoxicity |  |

Second part, the compound before the results:

| Structure (SMILES) | inhibition at 100 µM [1] [%] | IC50 [1] [µM] | inhibition at 50 µM [2, 5] [%] | Cytotoxicity in RAW 264.7 cells (MTT) [3] | other results |
| --- | --- | --- | --- | --- | --- |
| O=C(/C=C/c1ccc(O)c(O)c1)O[C@@H]1C[C@@](O)(C(=O)O)C[C@@H](O)[C@@H]1O [Compound 1] | 74.3 ± 3.4 | 41.9 ± 1.2 | 5.7 | did not exhibit significant cytotoxicity |  |
| O=C(/C=C/c1ccc(O)cc1)O[C@@H]1C[C@@](O)(C(=O)O)C[C@@H](O)[C@@H]1O [Compound 2] | 4.4 ± 3.2 |  | 19.7 | did not exhibit significant cytotoxicity |  |
| COc1cc(/C=C/C(=O)O[C@@H]2C[C@@](O)(C(=O)O)C[C@@H](O)[C@@H]2O)ccc1O [Compound 3] | 67.1 ± 3.4 | 60.7 ± 1.9 | 26.1 | did not exhibit significant cytotoxicity |  |
| COC(=O)[C@@]1(O)C[C@@H](O)[C@H](O)[C@H](OC(=O)/C=C/c2ccc(O)c(O)c2)C1 [Compound 4] | 68.3 ± 3.4 | 30.4 ± 0.8 |  |  | Inhibition of NO production at 50 µM (%) [2, 6]: N.I |
| CCCCOC(=O)[C@@]1(O)C[C@@H](O)[C@H](O)[C@H](OC(=O)/C=C/c2ccc(O)c(O)c2)C1 [Compound 5] | 77.7 ± 2.6 | 33.1 ± 0.3 | 53 | did not exhibit significant cytotoxicity | IC50 [2, 7]: 45.3 ± 1.4 µM |
| COC(=O)[C@]1(O)C[C@@H](O)[C@@H](O)[C@H](OC(=O)/C=C/c2ccc(O)c(O)c2)C1 [Compound 6] | 111 ± 1.9 | 14.7 ± 0.4 | 1.8 |  |  |
| O=C(C=Cc1ccc(O)c(O)c1)OC1C(O)CC(O)(C(=O)O)CC1O (centres unmarked) [Compound 7] | 69.2 ± 0.9 | 50.8 ± 1.5 | 10.7 | did not exhibit significant cytotoxicity |  |
| COC(=O)C1(O)CC(O)C(OC(=O)C=Cc2ccc(O)c(O)c2)C(O)C1 (centres unmarked) [Compound 8] |  | 9.4 ± 0.2 | 25.2 | did not exhibit significant cytotoxicity | Ki [4]: 13.7 µM |
| O=C(/C=C\c1ccc(O)cc1)O[C@@H]1C[C@@](O)(C(=O)O)C[C@@H](O)[C@@H]1O [Compound 9] | 32.3 ± 2.7 |  |  | did not exhibit significant cytotoxicity | Inhibition of NO production at 50 µM (%) [2, 6]: N.I |
| O=c1c(O)c(-c2ccc(O)cc2)oc2cc(O)cc(O)c12 [Compound 10, kaempferol] | 58 ± 2 | 6.8 ± 2.4 | 93 | did not exhibit significant cytotoxicity | Type of sEH inhibition [4]: Non-competitive; Ki [4]: 18.6 µM; IC50 [2, 7]: 15.6 ± 1.6 µM |
| O=C1C[C@@H](c2ccc(O)cc2)Oc2cc(O)ccc21 [Compound 11] | 34.5 ± 2.5 |  | 10.8 |  |  |
| O=c1cc(-c2ccc(O)cc2)oc2cc(O)cc(O)c12 [Compound 12, apigenin] | 92.4 ± 2 | 7.2 ± 0.3 | 98.9 | did not exhibit significant cytotoxicity | Type of sEH inhibition [4]: Non-competitive; Ki [4]: 24.4 µM; IC50 [2, 7]: 12.2 ± 0.1 µM |
| O=C1c2c(O)cc(O)cc2O[C@H](c2ccc(O)cc2)[C@H]1O[C@@H]1O[C@H](CO)[C@@H](O)[C@H](O)[C@H]1O [Compound 13] | 22.7 ± 3.9 |  |  | did not exhibit significant cytotoxicity | Inhibition of NO production at 50 µM (%) [2, 6]: N.I |
| O=c1c(O[C@@H]2O[C@H](CO)[C@@H](O)[C@H](O)[C@H]2O)c(-c2ccc(O)cc2)oc2cc(O)cc(O)c12 [Compound 14] | 78 ± 1 | 21.3 ± 0.3 | 9 | did not exhibit significant cytotoxicity |  |
| C[C@@H]1O[C@@H](OC[C@H]2O[C@@H](Oc3c(-c4ccc(O)cc4)oc4cc(O)cc(O)c4c3=O)[C@H](O)[C@@H](O)[C@H]2O)[C@H](O)[C@H](O)[C@H]1O [Compound 15] | 60.2 ± 0.5 | 18.3 ± 0.2 | 3 | did not exhibit significant cytotoxicity |  |
| COc1cc([C@H]2Oc3c(OC)cc(CCCO)cc3[C@@H]2CO[C@@H]2O[C@H](CO)[C@@H](O)[C@H](O)[C@H]2O)ccc1O [Compound 20] |  |  | 13.9 | did not exhibit significant cytotoxicity | Inhibition on sEH at 100 µM (%) [1]: N.I |
| COc1cc([C@@H]2Oc3c(OC)cc(CCCO)cc3[C@H]2CO)cc(OC)c1O [Compound 21] |  |  | 16.2 | did not exhibit significant cytotoxicity | Inhibition on sEH at 100 µM (%) [1]: N.I |
| O=C1CC(c2ccc(O)c(O)c2)c2c(O)cc3c(c2O1)CC(O)C(c1ccc(O)c(O)c1)O3 (centres unmarked) [Compound 22] | 31.9 ± 4.5 |  | 18.3 | did not exhibit significant cytotoxicity |  |
| COc1cc(C(=O)O)cc(OC)c1O [Compound 23] | 10.7 ± 3 |  | 14.1 |  |  |
| O=Cc1ccc(O)c(O)c1 [Compound 24] | 38.6 ± 0.2 |  | 22.2 | did not exhibit significant cytotoxicity |  |
| O=C(O)c1ccc(O)cc1 [Compound 25] | 42 ± 3.9 |  | 17 | did not exhibit significant cytotoxicity |  |
| COc1cc(C(=O)O)ccc1O [Compound 26] | 21.3 ± 0.2 |  | 11.4 |  |  |
| COc1ccc(C(=O)O)cc1O [Compound 27] | 17.5 ± 0.2 |  | 24 | did not exhibit significant cytotoxicity |  |
| CC1OC(OCC2OC(OCCc3ccccc3)C(O)C(O)C2O)C(O)C(O)C1O (centres unmarked) [Compound 36] |  |  | 20.9 | did not exhibit significant cytotoxicity | Inhibition on sEH at 100 µM (%) [1]: N.I |
| CC[C@H](/C=C/[C@@H](C)[C@H]1CC[C@H]2[C@@H]3CC=C4C[C@@H](O[C@@H]5O[C@H](CO)[C@@H](O)[C@H](O)[C@H]5O)CC[C@]4(C)[C@H]3CC[C@]12C)C(C)C [Compound 39] |  |  |  | did not exhibit significant cytotoxicity | Inhibition on sEH at 100 µM (%) [1]: N.I; inhibition at 50 µM ([2]; Mus musculus, RAW264.7, read-out: Inhibition of NO production at 50 µM (%)): 20.3% |
| C[C@@H]1C[C@H]2[C@@H]3CCC4=CC(=O)C=C[C@]4(C)[C@@]3(F)[C@@H](O)C[C@]2(C)[C@@]1(O)C(=O)CO [Dexamethasone, reference compound] |  |  |  |  | IC50 ([2]; LPS-stimulated RAW264.7 cells): 10.5 ± 0.1 µM; IC50 [2, 7]: 10.5 ± 0.13 µM |
